Data reported in patent EP1287826A1, “A crystalline form of the free base of Amlodipine” (Pfizer Limited, priority 2001, dated 2003).

Format: physicochemical
Procedure: The stability of crystalline amlodipine free base bulk and amlodipine free base tablets was assessed by storing samples for up to 6 or 12 weeks at 25°C/60%RH, 40°C/75%RH and 50°C/20%RH. Changes were monitored using a stability-indicating HPLC method. Results were calculated by normalised peak area (npa). Degradants were identified by comparison of their relative retention times against impurity standards.

- stability: stability was demonstrated
SMILES: CCOC(=O)C1=C(COCCN)NC(C)=C(C(=O)OC)C1c1ccccc1Cl (stereo not shown) [crystalline amlodipine free base, 2-[(2-aminoethoxy)]-methyl-4-(2-chlorophenyl)-3-ethoxycarbonyl-5-methoxycarbonyl-6-methyl-1,4-dihydropyridine]
